One may read the AC50 as the midpoint of the concentration-response curve, whichever way the signal moves.

Drawing on patent US20230365592A1 (Agios Pharmaceuticals, Inc., priority 2022, published 2023), this text covers AC50 for 19 molecules.

In the assay the target is T1, human PAH with the R408W mutation (Homo sapiens, UniProt P00439, R408W).
T1 construct: expressed in transfected cells
T1 sequence (P00439 1-452 R408W): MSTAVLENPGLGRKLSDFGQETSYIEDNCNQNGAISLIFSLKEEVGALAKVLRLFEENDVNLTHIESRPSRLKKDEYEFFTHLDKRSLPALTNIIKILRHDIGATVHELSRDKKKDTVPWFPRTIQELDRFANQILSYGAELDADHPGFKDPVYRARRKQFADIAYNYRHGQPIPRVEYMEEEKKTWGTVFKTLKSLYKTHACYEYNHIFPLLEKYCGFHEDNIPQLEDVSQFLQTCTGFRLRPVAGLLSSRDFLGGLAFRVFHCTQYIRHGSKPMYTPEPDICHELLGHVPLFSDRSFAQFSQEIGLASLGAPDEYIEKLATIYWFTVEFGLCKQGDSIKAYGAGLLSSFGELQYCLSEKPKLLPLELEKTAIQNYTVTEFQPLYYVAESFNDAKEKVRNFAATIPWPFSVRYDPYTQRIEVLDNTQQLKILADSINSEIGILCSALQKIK
Kind of assay: Cell Based Phenylalanine Flux Assay.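 Further: after compound treatment, cells received sepiapterin plus isotope-labelled Phenylalanine for 4 hours, then labelled Tyrosine in the medium was quantified, 10-point 2-fold dilution series run in duplicate.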 The note with it: A375 cells expressing human R408W PAH; 24 hrs compound incubation; 13C-Tyrosine by LC-MS; average where tested multiple times; read-out: AC50.

Turning to `O=C(c1nnc(C2CC2)o1)N1CCc2[nH]cnc2[C@@H]1c1cc2c(C(F)(F)F)cccn2n1` [Example 943, (R)-(5-cyclopropyl-1,3,4-oxadiazol-2-yl)(4-(4-(trifluoromethyl)pyrazolo[1,5-a]pyridin-2-yl)-6,7-dihydro-1H-imidazo[4,5-c]pyridin-5(4H)-yl)methanone], the AC50 was greater than 5 µM.

As for `Cc1nnc(C(=O)N2CCc3[nH]cnc3[C@H]2c2cc3c(C(F)(F)F)cccn3n2)o1` [Example 944, (S)-(5-methyl-1,3,4-oxadiazol-2-yl)(4-(4-(trifluoromethyl)pyrazolo[1,5-a]pyridin-2-yl)-6,7-dihydro-1H-imidazo[4,5-c]pyridin-5(4H)-yl)methanone], the AC50 lay in the range of 0.5 to 1 µM.

On to `Cc1nnc(C(=O)N2CCc3[nH]cnc3[C@@H]2c2cc3c(C(F)(F)F)cccn3n2)o1` [Example 945, (R)-(5-methyl-1,3,4-oxadiazol-2-yl)(4-(4-(trifluoromethyl)pyrazolo[1,5-a]pyridin-2-yl)-6,7-dihydro-1H-imidazo[4,5-c]pyridin-5(4H)-yl)methanone], for which the AC50 was greater than 5 µM. Then `O=C(c1nnc(C2CC2)o1)N1CCc2[nH]cnc2[C@H]1c1cc2c(F)cccn2n1` [Example 946, (S)-(5-cyclopropyl-1,3,4-oxadiazol-2-yl)(4-(4-fluoropyrazolo[1,5-a]pyridin-2-yl)-6,7-dihydro-1H-imidazo[4,5-c]pyridin-5(4H)-yl)methanone], with less than 0.5 µM; and `O=C(c1nnc(C2CC2)o1)N1CCc2[nH]cnc2[C@@H]1c1cc2c(F)cccn2n1` [Example 947, (R)-(5-cyclopropyl-1,3,4-oxadiazol-2-yl)(4-(4-fluoropyrazolo[1,5-a]pyridin-2-yl)-6,7-dihydro-1H-imidazo[4,5-c]pyridin-5(4H)-yl)methanone], with greater than 5 µM. As for `CC(C)(C)c1nnc(C(=O)N2CCc3[nH]cnc3[C@H]2c2cc3c(C(F)(F)F)cccn3n2)o1` [Example 948, (S)-(5-(tert-butyl)-1,3,4-oxadiazol-2-yl)(4-(4-(trifluoromethyl)pyrazolo[1,5-a]pyridin-2-yl)-6,7-dihydro-1H-imidazo[4,5-c]pyridin-5(4H)-yl)methanone], the AC50 is less than 0.5 µM. For `CC(C)(C)c1nnc(C(=O)N2CCc3[nH]cnc3[C@@H]2c2cc3c(C(F)(F)F)cccn3n2)o1` [Example 949, (R)-(5-(tert-butyl)-1,3,4-oxadiazol-2-yl)(4-(4-(trifluoromethyl)pyrazolo[1,5-a]pyridin-2-yl)-6,7-dihydro-1H-imidazo[4,5-c]pyridin-5(4H)-yl)methanone] the value was 1 to 5 µM. Then `CC(C)(F)c1nnc(C(=O)N2CCc3[nH]cnc3[C@H]2c2cc3c(C(F)(F)F)cccn3n2)o1` [Example 950, (S)-(5-(2-fluoropropan-2-yl)-1,3,4-oxadiazol-2-yl)(4-(4-(trifluoromethyl)pyrazolo[1,5-a]pyridin-2-yl)-6,7-dihydro-1H-imidazo[4,5-c]pyridin-5(4H)-yl)methanone], with less than 0.5 µM; and `CC(C)(F)c1nnc(C(=O)N2CCc3[nH]cnc3[C@@H]2c2cc3c(C(F)(F)F)cccn3n2)o1` [Example 951, (R)-(5-(2-fluoropropan-2-yl)-1,3,4-oxadiazol-2-yl)(4-(4-(trifluoromethyl)pyrazolo[1,5-a]pyridin-2-yl)-6,7-dihydro-1H-imidazo[4,5-c]pyridin-5(4H)-yl)methanone], with 1 to 5 µM; and `Cn1cc(-c2nnc(C(=O)N3CCc4[nH]cnc4[C@H]3c3cc4cccc(C(F)(F)F)n4n3)o2)cn1` [Example 952, (S)-(5-(1-methyl-1H-pyrazol-4-yl)-1,3,4-oxadiazol-2-yl)(4-(7-(trifluoromethyl)pyrazolo[1,5-a]pyridin-2-yl)-6,7-dihydro-1H-imidazo[4,5-c]pyridin-5(4H)-yl)methanone], with 0.5 to 1 µM. For `Cn1cc(-c2nnc(C(=O)N3CCc4[nH]cnc4[C@@H]3c3cc4cccc(C(F)(F)F)n4n3)o2)cn1` [Example 953, (R)-(5-(1-methyl-1H-pyrazol-4-yl)-1,3,4-oxadiazol-2-yl)(4-(7-(trifluoromethyl)pyrazolo[1,5-a]pyridin-2-yl)-6,7-dihydro-1H-imidazo[4,5-c]pyridin-5(4H)-yl)methanone] the value was 1 to 5 µM; for `Cc1c(-c2nnc(C(=O)N3CCc4[nH]cnc4[C@H]3c3cc4c(F)cccn4n3)o2)cnn1C` [Example 954, (S)-(5-(1,5-dimethyl-1H-pyrazol-4-yl)-1,3,4-oxadiazol-2-yl)(4-(4-fluoropyrazolo[1,5-a]pyridin-2-yl)-6,7-dihydro-1H-imidazo[4,5-c]pyridin-5(4H)-yl)methanone], less than 0.5 µM. For `Cc1c(-c2nnc(C(=O)N3CCc4[nH]cnc4[C@@H]3c3cc4c(F)cccn4n3)o2)cnn1C` [Example 955, (R)-(5-(1,5-dimethyl-1H-pyrazol-4-yl)-1,3,4-oxadiazol-2-yl)(4-(4-fluoropyrazolo[1,5-a]pyridin-2-yl)-6,7-dihydro-1H-imidazo[4,5-c]pyridin-5(4H)-yl)methanone], the AC50 is greater than 5 µM.

Turning to `Cc1cccn2nc([C@H]3c4nc[nH]c4CCN3C(=O)c3nnc(-c4cnccn4)o3)cc12` [Example 956, (R)-(4-(4-methylpyrazolo[1,5-a]pyridin-2-yl)-6,7-dihydro-1H-imidazo[4,5-c]pyridin-5(4H)-yl)(5-(pyrazin-2-yl)-1,3,4-oxadiazol-2-yl)methanone], the AC50 is greater than 5 µM. As to `Cc1cccn2nc([C@@H]3c4nc[nH]c4CCN3C(=O)c3nnc(-c4cnccn4)o3)cc12` [Example 957, (S)-(4-(4-methylpyrazolo[1,5-a]pyridin-2-yl)-6,7-dihydro-1H-imidazo[4,5-c]pyridin-5(4H)-yl)(5-(pyrazin-2-yl)-1,3,4-oxadiazol-2-yl)methanone], the AC50 is less than 0.5 µM. With `O=C(c1ocnc1C(F)F)N1CCc2[nH]cnc2[C@@H]1c1cc2cccc(Cl)n2n1` [Example 959, (R)-(4-(7-chloropyrazolo[1,5-a]pyridin-2-yl)-6,7-dihydro-1H-imidazo[4,5-c]pyridin-5(4H)-yl)(4-(difluoromethyl)oxazol-5-yl)methanone], the AC50 is 1 to 5 µM. For `CC(C)(O)c1nc(C(F)F)c(C(=O)N2CCc3[nH]cnc3[C@H]2c2cc3cccc(Cl)n3n2)o1` [Example 960, (S)-(4-(7-chloropyrazolo[1,5-a]pyridin-2-yl)-6,7-dihydro-1H-imidazo[4,5-c]pyridin-5(4H)-yl)(4-(difluoromethyl)-2-(2-hydroxypropan-2-yl)oxazol-5-yl)methanone] the value was 0.5 to 1 µM. Take `CC(C)(O)c1nc(C(F)F)c(C(=O)N2CCc3[nH]cnc3[C@@H]2c2cc3cccc(Cl)n3n2)o1` [Example 961, (R)-(4-(7-chloropyrazolo[1,5-a]pyridin-2-yl)-6,7-dihydro-1H-imidazo[4,5-c]pyridin-5(4H)-yl)(4-(difluoromethyl)-2-(2-hydroxypropan-2-yl)oxazol-5-yl)methanone]: the AC50 fell in the range of 1 to 5 µM. For `O=C(c1nnc(-c2cnccn2)o1)N1CCc2[nH]cnc2[C@@H]1c1cc2c(F)cccn2n1` [Example 963, (R)-(4-(4-fluoropyrazolo[1,5-a]pyridin-2-yl)-6,7-dihydro-1H-imidazo[4,5-c]pyridin-5(4H)-yl)(5-(pyrazin-2-yl)-1,3,4-oxadiazol-2-yl)methanone] the value was greater than 5 µM.
